Laboratory results: ChEMBL document CHEMBL5537181 (J Med Chem, 2024)
Active and inactive are the calls of the source. No cut-off for these calls is given here. Where a SMILES comes first, the peptide text is derived from it. Bridges are numbered along the chain shown (N, C = ends).

Experiments:
[1] = target: Neuronal acetylcholine receptor; alpha9/alpha10 (Homo sapiens) (UniProt Q9UGM1+Q9GZZ6); test: Antagonist activity at human wild type alpha9alpha10 nAChR expressed in acetylcholine-induced Xenopus laevis oocytes assessed as inhibition of acetylcholine-induced current at 30 nM by two electrode voltage-clamp assay relative to control; format: cell-based; details: Oocyte
[2] = target: Voltage-dependent N-type calcium channel subunit alpha-1B (Homo sapiens, UniProt Q00975); test: Inhibition of human Cav2.2 channel transfected in HEK293T cells co-expressed with human GABAB receptor assessed as inhibition of Cav2.2-mediated Ba2+ current at 100 nM measured for 3 to 5 days by whole-cell patch clamp assay; format: cell-based; details: time 3-5 day
Chain of Voltage-dependent N-type calcium channel subunit alpha-1B (Q00975 whole entry, looked up): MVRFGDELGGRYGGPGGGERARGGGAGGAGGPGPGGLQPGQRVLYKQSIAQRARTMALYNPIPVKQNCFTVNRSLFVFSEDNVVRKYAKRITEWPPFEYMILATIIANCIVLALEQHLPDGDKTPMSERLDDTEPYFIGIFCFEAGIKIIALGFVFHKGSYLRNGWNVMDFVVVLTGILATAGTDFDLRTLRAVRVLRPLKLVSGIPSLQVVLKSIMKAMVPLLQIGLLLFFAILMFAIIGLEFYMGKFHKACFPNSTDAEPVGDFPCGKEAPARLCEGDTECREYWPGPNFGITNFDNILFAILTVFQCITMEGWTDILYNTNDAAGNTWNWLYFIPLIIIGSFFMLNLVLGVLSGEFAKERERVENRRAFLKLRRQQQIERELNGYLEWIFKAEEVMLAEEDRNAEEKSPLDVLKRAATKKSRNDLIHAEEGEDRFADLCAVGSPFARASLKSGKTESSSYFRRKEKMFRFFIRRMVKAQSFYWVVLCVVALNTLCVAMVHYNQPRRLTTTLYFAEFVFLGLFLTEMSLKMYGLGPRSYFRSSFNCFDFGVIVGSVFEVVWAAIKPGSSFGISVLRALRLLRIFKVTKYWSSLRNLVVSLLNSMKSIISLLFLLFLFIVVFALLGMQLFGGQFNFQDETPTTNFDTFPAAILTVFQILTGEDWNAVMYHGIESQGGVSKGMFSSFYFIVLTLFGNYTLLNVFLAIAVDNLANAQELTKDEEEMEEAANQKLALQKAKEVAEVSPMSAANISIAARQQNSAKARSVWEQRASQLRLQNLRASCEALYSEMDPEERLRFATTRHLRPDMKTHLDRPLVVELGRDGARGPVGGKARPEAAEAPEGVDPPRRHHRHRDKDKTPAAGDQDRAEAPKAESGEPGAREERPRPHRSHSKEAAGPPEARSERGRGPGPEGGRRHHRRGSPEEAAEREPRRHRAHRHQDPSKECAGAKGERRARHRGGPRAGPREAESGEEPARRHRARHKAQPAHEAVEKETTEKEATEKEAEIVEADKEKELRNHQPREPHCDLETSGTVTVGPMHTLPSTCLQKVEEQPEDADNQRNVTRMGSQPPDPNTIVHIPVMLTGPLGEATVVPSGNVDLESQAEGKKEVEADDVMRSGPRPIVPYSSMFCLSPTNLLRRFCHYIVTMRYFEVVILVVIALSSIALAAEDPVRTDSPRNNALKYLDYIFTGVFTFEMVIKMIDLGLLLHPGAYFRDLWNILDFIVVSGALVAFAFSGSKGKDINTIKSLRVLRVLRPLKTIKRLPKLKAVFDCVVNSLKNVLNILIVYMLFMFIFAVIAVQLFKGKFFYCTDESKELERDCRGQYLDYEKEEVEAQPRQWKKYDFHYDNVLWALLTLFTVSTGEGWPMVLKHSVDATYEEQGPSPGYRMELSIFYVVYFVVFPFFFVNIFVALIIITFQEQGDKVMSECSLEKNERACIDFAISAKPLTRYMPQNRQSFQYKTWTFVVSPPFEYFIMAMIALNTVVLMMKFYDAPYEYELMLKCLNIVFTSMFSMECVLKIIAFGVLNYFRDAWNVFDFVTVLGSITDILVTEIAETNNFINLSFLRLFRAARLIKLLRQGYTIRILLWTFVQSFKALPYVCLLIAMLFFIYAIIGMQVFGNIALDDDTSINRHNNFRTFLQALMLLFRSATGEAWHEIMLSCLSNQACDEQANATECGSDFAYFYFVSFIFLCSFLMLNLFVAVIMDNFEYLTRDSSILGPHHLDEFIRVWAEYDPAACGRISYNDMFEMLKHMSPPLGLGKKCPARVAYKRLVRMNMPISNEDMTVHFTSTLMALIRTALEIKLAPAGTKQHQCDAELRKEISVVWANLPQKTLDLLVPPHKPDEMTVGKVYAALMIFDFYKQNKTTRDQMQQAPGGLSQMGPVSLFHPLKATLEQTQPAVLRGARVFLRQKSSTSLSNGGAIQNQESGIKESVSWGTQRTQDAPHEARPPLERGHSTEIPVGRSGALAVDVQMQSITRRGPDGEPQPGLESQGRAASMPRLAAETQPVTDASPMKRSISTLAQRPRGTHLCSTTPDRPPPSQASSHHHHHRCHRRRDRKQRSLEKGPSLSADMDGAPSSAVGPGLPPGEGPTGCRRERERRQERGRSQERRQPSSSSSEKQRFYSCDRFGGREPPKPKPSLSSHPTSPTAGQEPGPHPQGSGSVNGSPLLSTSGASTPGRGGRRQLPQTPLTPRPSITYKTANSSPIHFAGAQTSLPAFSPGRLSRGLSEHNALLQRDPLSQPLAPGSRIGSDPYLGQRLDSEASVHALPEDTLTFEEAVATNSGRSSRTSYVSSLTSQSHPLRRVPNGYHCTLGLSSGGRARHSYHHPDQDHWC

| Molecule | inhibition [1] | inhibition [2] | inhibition ([1]; filed as antagonist) |
| --- | --- | --- | --- |
| H-GRYRSPYDRRRRYRRIRD-NH2 | 10% | – | – |
| H-GDYRSPYDRRRRYRRITD-NH2 | 0% | – | – |
| H-GRYRSPYARRRRYRRITD-NH2 | 20% | 50% | – |
| H-GRYRSPYDRRRRYRRRTD-NH2 | – | – | > 80% |
| H-GRYRSPYDDRRRYRRITD-NH2 | 0% | – | – |
| H-GRYRSPYDRRRRYRRITR-NH2 | inactive | – | – |
| H-GAYRSPYDRRRRYRRITD-NH2 | 20% | – | – |
| CC[C@H](C)[C@@H]1NC(=O)[C@H](CCCNC(=N)N)NC(=O)[C@H](CCCNC(=N)N)NC(=O)[C@@H]2CSSC[C@H](NC(=O)[C@H](Cc3ccc(O)cc3)NC(=O)[C@H](CCCNC(=N)N)NC(=O)CNC(=O)[C@H](CC(=O)O)NC(=O)[C@H]([C@@H](C)O)NC1=O)C(=O)N[C@@H](CCCNC(=N)N)C(=O)N[C@@H](CO)C(=O)N1CCC[C@H]1C(=O)N[C@@H](Cc1ccc(O)cc1)C(=O)N[C@@H](CC(=O)O)C(=O)N[C@@H](CCCNC(=N)N)C(=O)N[C@@H](CCCNC(=N)N)C(=O)N[C@@H](CCCNC(=N)N)C(=O)N[C@@H](CCCNC(=N)N)C(=O)N[C@@H](Cc1ccc(O)cc1)C(=O)N2 (cyclo(CRRITDGRYCRSPYDRRRRY); disulfide 1-10) | 25% | – | – |
| H-GRYRSPYDRRRRYARITD-NH2 | – | 10% | Active |
| H-GRYRSPYDRRRRYRDITD-NH2 | 0% | – | – |
| H-GRYRSPYDRRRRRRRITD-NH2 | inactive | – | – |
| H-GRYRSPYDRRRRYRAITD-NH2 | 20% | – | – |
| H-GRYDSPYDRRRRYRRITD-NH2 | 0% | – | – |
| H-GRYRSPYDRRRRYRRIAD-NH2 | 20% | – | – |
| H-RRYRSPYDRRRRYRRITD-NH2 | 10% | – | – |
| H-GRYAAPYDRRRRYRRITD-NH2 | 20% | – | – |
| H-DRYRSPYDRRRRYRRITD-NH2 | 0% | – | – |
| H-GRDRSPYDRRRRYRRITD-NH2 | – | – | Active |
| H-GRYRSPYDRRRRYRRITA-NH2 | 20% | 10% | – |
| H-GRYRSPYDRRARYRRITD-NH2 | – | – | Active |
| CC[C@@H](C)[C@@H](NC(=O)[C@@H](CCCNC(=N)N)NC(=O)[C@@H](CCCNC(=N)N)NC(=O)[C@@H](Cc1ccc(O)cc1)NC(=O)[C@@H](CCCNC(=N)N)NC(=O)[C@@H](CCCNC(=N)N)NC(=O)[C@@H](CCCNC(=N)N)NC(=O)[C@@H](CCCNC(=N)N)NC(=O)[C@@H](CC(=O)O)NC(=O)[C@@H](Cc1ccc(O)cc1)NC(=O)[C@H]1CCCN1C(=O)[C@@H](CO)NC(=O)[C@@H](CCCNC(=N)N)NC(=O)[C@@H](Cc1ccc(O)cc1)NC(=O)[C@@H](CCCNC(=N)N)NC(=O)CN)C(=O)N[C@@H](C(=O)N[C@H](CC(=O)O)C(N)=O)[C@H](C)O | 25% | – | – |
| H-GRYRSPYDRRRRARRITD-NH2 | – | – | Active |
| N=C(N)NCCC[C@@H]1NC(=O)[C@H](CCCNC(=N)N)NC(=O)[C@H](CCCNC(=N)N)NC(=O)[C@H](CCCNC(=N)N)NC(=O)[C@H](CC(=O)O)NC(=O)[C@H](Cc2ccc(O)cc2)NC(=O)[C@@H]2CCCN2C(=O)[C@H](CO)NC(=O)[C@H](CCCNC(=N)N)NC(=O)[C@@H](N)CSSC[C@@H](C(N)=O)NC(=O)[C@H](Cc2ccc(O)cc2)NC1=O (H-CRSPYDRRRRYC-NH2; disulfide 1-12) | 25% | – | – |
| H-GRYRSPYDRRRDYRRITD-NH2 | 0% | – | – |
| CC[C@H](C)[C@H](NC(=O)[C@H](CCCNC(=N)N)NC(=O)[C@H](CCCNC(=N)N)NC(=O)[C@@H]1CSSC[C@H](NC(=O)[C@@H](N)Cc2ccc(O)cc2)C(=O)N[C@@H](CCCNC(=N)N)C(=O)N[C@@H](CO)C(=O)N2CCC[C@H]2C(=O)N[C@@H](Cc2ccc(O)cc2)C(=O)N[C@@H](CC(=O)O)C(=O)N[C@@H](CCCNC(=N)N)C(=O)N[C@@H](CCCNC(=N)N)C(=O)N[C@@H](CCCNC(=N)N)C(=O)N[C@@H](CCCNC(=N)N)C(=O)N[C@@H](Cc2ccc(O)cc2)C(=O)N1)C(=O)N[C@H](C(=O)N[C@@H](CC(=O)O)C(N)=O)[C@@H](C)O (H-YCRSPYDRRRRYCRRITD-NH2; disulfide 2-13) | 25% | – | – |
| H-GRYRSPADRRRRYRRITD-NH2 | 20% | 60% | – |

| Molecule | inhibition [1] | inhibition [2] | inhibition ([1]; filed as antagonist) |
| --- | --- | --- | --- |
| H-GRYASPYDRRRRYRRITD-NH2 | 20% | – | – |
| H-GRYRDPYDRRRRYRRITD-NH2 | 0% | – | – |
| H-GRRRSPYDRRRRYRRITD-NH2 | 10% | – | – |
| H-GRYRSPDDRRRRYRRITD-NH2 | – | – | Active |
| H-GRYRSPYDRRDRYRRITD-NH2 | 0% | – | – |
| H-GRYRSPRDRRRRYRRITD-NH2 | 10% | – | – |
| H-ARYRSPYDRRRRYRRITD-NH2 | 20% | – | – |
| H-GRYRRPYDRRRRYRRITD-NH2 | – | – | > 80% |
| H-GRARSPYDRRRRYRRITD-NH2 | 20% | 10% | – |
| H-GRYRSPYRRRRRYRRITD-NH2 | 10% | – | – |
| H-GRYRSPYDRRRRYDRITD-NH2 | 0% | – | – |
| CC[C@H](C)[C@H](NC(=O)[C@H](CCCNC(=N)N)NC(=O)[C@H](CCCNC(=N)N)NC(=O)[C@@H]1CSSC[C@H](NC(=O)[C@H](Cc2ccc(O)cc2)NC(=O)[C@H](CCCNC(=N)N)NC(=O)CN)C(=O)N[C@@H](CCCNC(=N)N)C(=O)N[C@@H](CO)C(=O)N2CCC[C@H]2C(=O)N[C@@H](Cc2ccc(O)cc2)C(=O)N[C@@H](CC(=O)O)C(=O)N[C@@H](CCCNC(=N)N)C(=O)N[C@@H](CCCNC(=N)N)C(=O)N[C@@H](CCCNC(=N)N)C(=O)N[C@@H](CCCNC(=N)N)C(=O)N[C@@H](Cc2ccc(O)cc2)C(=O)N1)C(=O)N[C@H](C(=O)N[C@@H](CC(=O)O)C(N)=O)[C@@H](C)O (H-GRYCRSPYDRRRRYCRRITD-NH2; disulfide 4-15) | 25% | – | – |
| H-GRYRSPYDRRRRYRDDTD-NH2 | 0% | – | – |
| H-GRYRSPYDRRRAYRRITD-NH2 | – | 10% | Active |
| H-GRYRSRYDRRRRYRRITD-NH2 | 10% | – | – |
| H-GRYRSPYDRRRRYRRATD-NH2 | 20% | 80% | – |
| H-GRYRSPYDARRRYRRITD-NH2 | 20% | 50% | – |
| H-GRYRSPYDRRRRYRDIDD-NH2 | 0% | – | – |
| H-GRYRSAYDRRRRYRRITD-NH2 | 20% | – | – |
| CC[C@H](C)[C@H](NC(=O)[C@H](CCCNC(=N)N)NC(=O)[C@H](CCCNC(=N)N)NC(=O)[C@@H]1CSSC[C@H](N)C(=O)N[C@@H](CCCNC(=N)N)C(=O)N[C@@H](CO)C(=O)N2CCC[C@H]2C(=O)N[C@@H](Cc2ccc(O)cc2)C(=O)N[C@@H](CC(=O)O)C(=O)N[C@@H](CCCNC(=N)N)C(=O)N[C@@H](CCCNC(=N)N)C(=O)N[C@@H](CCCNC(=N)N)C(=O)N[C@@H](CCCNC(=N)N)C(=O)N[C@@H](Cc2ccc(O)cc2)C(=O)N1)C(=O)N[C@H](C(=O)N[C@@H](CC(=O)O)C(N)=O)[C@@H](C)O (H-CRSPYDRRRRYCRRITD-NH2; disulfide 1-12) | 25% | – | – |
| H-GRYRSPYDRRRRDRRITD-NH2 | 0% | – | – |
| H-GRYRSPYDRARRYRRITD-NH2 | 20% | – | – |
| H-GRYRSDYDRRRRYRRITD-NH2 | 0% | – | – |
| H-GRYRSPYDRDRRYRRITD-NH2 | 0% | – | – |
| CC[C@H](C)[C@H](NC(=O)[C@H](CCCNC(=N)N)NC(=O)[C@H](CCCNC(=N)N)NC(=O)[C@@H]1CSSC[C@H](NC(=O)[C@H](Cc2ccc(O)cc2)NC(=O)[C@@H](N)CCCNC(=N)N)C(=O)N[C@@H](CCCNC(=N)N)C(=O)N[C@@H](CO)C(=O)N2CCC[C@H]2C(=O)N[C@@H](Cc2ccc(O)cc2)C(=O)N[C@@H](CC(=O)O)C(=O)N[C@@H](CCCNC(=N)N)C(=O)N[C@@H](CCCNC(=N)N)C(=O)N[C@@H](CCCNC(=N)N)C(=O)N[C@@H](CCCNC(=N)N)C(=O)N[C@@H](Cc2ccc(O)cc2)C(=O)N1)C(=O)N[C@H](C(=O)N[C@@H](CC(=O)O)C(N)=O)[C@@H](C)O (H-RYCRSPYDRRRRYCRRITD-NH2; disulfide 3-14) | 25% | – | – |
